We go through 14 molecules from paper PMC8843160 (Drug Delivery, 2022).

Each structure is given as a SMILES string. Converted amounts (≈) assume the structure as drawn. Read-outs that look alike come from different tables or passages of the source.

The nature of data set [1]: In vitro skin permeation, Franz diffusion cells. The data set is classed as in vitro ADME, porcine. To be noted: donor saturated solution in isopropyl myristate; for Q24h, the cumulative amount of drug permeated per unit area at 24 h / Tlag / Jss, the steady-state flux: porcine ear skin, receptor PBS pH 7.4, 32 °C; for Tlag: linear portion of permeation curve extrapolated to the abscissa; for Jss, the steady-state flux: slope of the linear portion of the plots. The source says: According to the description in our previous report (Xu et al., [2011]), the porcine ears immediately obtained from the killed pig were supplied by local slaughterhouse (Xiangtan, China). The hair of porcine ears was carefully cut off with animal hair clippers. Then, skin grafting knife (Medical Equipment Factory of Shanghai Medical Instruments Co., Ltd., Shanghai, China) was employed to separate the skin and subcutaneous fat, and the skin of thickness in range of 0.6 ± 0.1 mm was obtained. The skin was kept frozen at −20 °C no more than 2 weeks.
Two-chamber Franz diffusion cells (receiver volume of 6.5 mL, effective diffusion area of 2.8 cm^2) were used for the in vitro transdermal experiments. The prepared skin was placed between the cell halves with the SC facing the donor cell. The receptor compartment was filled with phosphate buffered saline (pH 7.4), which was put in a water bath at 32 ± 0.5 °C and stirred with a magnetic bar at 300 rpm. The saturated solution of DCN and its ion-pair compounds in isopropyl myristate was filled in the donor cell, and a glass sheet was employed to cover the supply chamber during the in vitro permeation experiments. Since the experiment started, 1.0 mL sample was withdrawn from the receptor compartment at predetermined time interval 2, 4, 6, 8, 10, 12, 14, and 24 h. Subsequently, the equal volume of fresh PBS was replenished. These investigations were performed with different individual skin at least in triplicate.
(§1) The samples were determined by an LC-20A HPLC system (SHIMADZU, Kyoto, Japan). The separation was achieved on an InertSustain C18 column (4.6 mm × 250 mm, 5 µm, SHIMADZU, Kyoto, Japan) with the flow rate keeping at 1.0 mL/min, the column temperature maintaining at 40 °C and mobile phase consisting of methanol:water (25:75, v/v) with 0.4% phosphoric acid in water. Injection volume for each run was 50 μL, and detection wavelength was 254 nm.

A short description of data set [2]: Equilibrium solubility experiments. The data set is classed as physicochemical. How it is done:
The obtained complexes were vibrated by ultrasonic for 10 min then continuously shaken in a water bath at 32 °C until equilibrium.
as §1

Data set [3] is described as follows: Apparent distribution coefficient (Log P), shake-flask method. The data set is classed as physicochemical. Particulars: n-octanol/distilled water, 48 h, 32 °C. As to the method:
as §1

Setting [4] is: aqueous buffer, thermodynamic from solid, PBS pH 7.4, 32 °C, read-out: Equilibrium solubility PBS (pH 7.4).
The mark [5] stands for this setting: thermodynamic from solid, isopropyl myristate, 32 °C, read-out: Equilibrium solubility IPM.
[6] abbreviates: thermodynamic from solid, water, 32 °C, read-out: Equilibrium solubility Water.

On to `CC(=O)Oc1cccc2c1C(=O)c1c(OC(C)=O)cc(C(=O)O)cc1C2=O` [DCN, Diacerein, reference compound], for which the “Q24h, the cumulative amount of drug permeated per unit area at 24 h” value in data set [1] came to 1.83 ± 0.22 µg/cm^2. Moreover, the Tlag in data set [1] is listed as 2.68 ± 0.78 h. Further, in data set [1], the “Jss, the steady-state flux” value was 0.06 ± 0.01 µg/cm^2⋅h^–1. Further, the solubility thermodynamic at 48 h in data set [2] (setting [4]) was 1442 ± 5.58 µg/mL (≈ 3910 µM); in data set [2] (setting [5]), 83.6 ± 18.1 µg/mL (≈ 227 µM); in data set [2] (setting [6]) it was 8.29 ± 0.27 µg/mL (≈ 22.5 µM); in data set [2] (water, 32 °C, read-out: Equilibrium solubility Water), ≤ 10 µg/mL.
For the molecule `CC(=O)Oc1cccc2c1C(=O)c1c(OC(C)=O)cc(C(=O)O)cc1C2=O.CCNCC` [DCN-Dea], in data set [1], the “Q24h, the cumulative amount of drug permeated per unit area at 24 h” value is 2.82 ± 0.49 µg/cm^2; the Tlag is 4.12 ± 1.14 h; the “Jss, the steady-state flux” value came out at 0.10 ± 0.01 µg/cm^2⋅h^–1.
On to `CC(=O)Oc1cccc2c1C(=O)c1c(OC(C)=O)cc(C(=O)O)cc1C2=O.OCCNCCO` [DCN-Deta], for which, in data set [1], the “Q24h, the cumulative amount of drug permeated per unit area at 24 h” value was 4.03 ± 0.71 µg/cm^2; the Tlag was 2.16 ± 0.55 h; the “Jss, the steady-state flux” value is 0.11 ± 0.02 µg/cm^2⋅h^–1.
As to `CC(=O)Oc1cccc2c1C(=O)c1c(OC(C)=O)cc(C(=O)O)cc1C2=O.CCCCCCN` [DCN-N6], in data set [1], the “Q24h, the cumulative amount of drug permeated per unit area at 24 h” value amounted to 3.86 ± 0.21 µg/cm^2; the Tlag is 1.52 ± 0.36 h; the “Jss, the steady-state flux” value came out at 0.10 ± 0.02 µg/cm^2⋅h^–1.
Take `CC(=O)Oc1cccc2c1C(=O)c1c(OC(C)=O)cc(C(=O)O)cc1C2=O.CCCCCCCCN` [DCN-N8]: in data set [1], the “Q24h, the cumulative amount of drug permeated per unit area at 24 h” value is 4.30 ± 0.63 µg/cm^2; the Tlag is 2.15 ± 0.22 h; the “Jss, the steady-state flux” value was 0.14 ± 0.03 µg/cm^2⋅h^–1.
Taken in the same sequence, the figures for `CC(=O)Oc1cccc2c1C(=O)c1c(OC(C)=O)cc(C(=O)O)cc1C2=O.CCCCCCCCCCN` [DCN-N10] were 6.41 ± 0.23 µg/cm^2, 1.38 ± 0.14 h and 0.20 ± 0.03 µg/cm^2⋅h^–1.
With `CC(=O)Oc1cccc2c1C(=O)c1c(OC(C)=O)cc(C(=O)O)cc1C2=O.CCCCCCCCCCCCN` [DCN-N12], in data set [1], the Tlag is given as 2.50 ± 0.18 h and the “Jss, the steady-state flux” value was 0.34 ± 0.02 µg/cm^2⋅h^–1.
With `CC(=O)Oc1cccc2c1C(=O)c1c(OC(C)=O)cc(C(=O)O)cc1C2=O.CCCCCCCCCCCCCCN` [DCN-N14], in data set [1], the “Q24h, the cumulative amount of drug permeated per unit area at 24 h” value is recorded as 7.03 ± 1.56 µg/cm^2; the Tlag is 1.31 ± 0.11 h; the “Jss, the steady-state flux” value was determined as 0.24 ± 0.05 µg/cm^2⋅h^–1.
As to `CC(=O)Oc1cccc2c1C(=O)c1c(OC(C)=O)cc(C(=O)O)cc1C2=O.CCCCCCCCCCCCCCCCN` [DCN-N16], in data set [1], the “Q24h, the cumulative amount of drug permeated per unit area at 24 h” value turned out to be 6.44 ± 0.36 µg/cm^2; the Tlag is listed as 1.28 ± 0.23 h; the “Jss, the steady-state flux” value came out at 0.22 ± 0.01 µg/cm^2⋅h^–1.
With `CC(=O)Oc1cccc2c1C(=O)c1c(OC(C)=O)cc(C(=O)O)cc1C2=O.CCCCCCCCCCCCCCCCCCN` [DCN-N18], in data set [1], the “Q24h, the cumulative amount of drug permeated per unit area at 24 h” value is on record as 5.97 ± 1.25 µg/cm^2; the Tlag was 1.42 ± 0.52 h; the “Jss, the steady-state flux” value turned out to be 0.20 ± 0.01 µg/cm^2⋅h^–1.
Consider `CC(=O)Oc1cccc2c1C(=O)c1c(OC(C)=O)cc(C(=O)O)cc1C2=O.CCN(CC)CC` [DCN-Tea], for which, in data set [1], the “Q24h, the cumulative amount of drug permeated per unit area at 24 h” value came to 2.85 ± 0.64 µg/cm^2; the Tlag was 3.39 ± 0.55 h; the “Jss, the steady-state flux” value is listed as 0.11 ± 0.04 µg/cm^2⋅h^–1. Also, the solubility thermodynamic at 48 h in data set [2] (setting [4]) turned out to be 8188 ± 44.4 µg/mL. For the same molecule, in data set [2] (setting [5]), the solubility thermodynamic at 48 h turned out to be 1385 ± 13.7 µg/mL. For the same molecule, in data set [2] (setting [6]), the solubility thermodynamic at 48 h came to 3233 ± 12.6 µg/mL.
For the molecule `CC(=O)Oc1cccc2c1C(=O)c1c(OC(C)=O)cc(C(=O)O)cc1C2=O.OCCN(CCO)CCO` [DCN-Teta], in data set [1] (porcine ear skin in vitro), the “transdermal permeation rate (comparison in words)” value is listed as “highest transdermal permeation rate”. In data set [1], the “Q24h, the cumulative amount of drug permeated per unit area at 24 h” value is 7.89 ± 0.38 µg/cm^2; the Tlag is 1.52 ± 0.48 h; the “Jss, the steady-state flux” value is on record as 0.17 ± 0.05 µg/cm^2⋅h^–1.
Take `CC(=O)Oc1cccc2c1C(=O)c1c(OC(C)=O)cc(C(=O)O)cc1C2=O.CCN` [DCN-ea]: in data set [1], the “Q24h, the cumulative amount of drug permeated per unit area at 24 h” value is on record as 2.17 ± 0.30 µg/cm^2; the Tlag is recorded as 1.79 ± 0.66 h; the “Jss, the steady-state flux” value was 0.08 ± 0.02 µg/cm^2⋅h^–1. Also, the “Log P” value in data set [3] is reported as “–0.39 ± 0.007”. Besides, the “Equilibrium solubility PBS (pH 7.4)” value in data set [2] (PBS pH 7.4, 32 °C, 48 h) turned out to be 12155.69 ± 81.21 μg/mL. In addition, the “Equilibrium solubility IPM” value in data set [2] (isopropyl myristate, 32 °C, 48 h) was 92.80 ± 14.10 µg/mL. In addition, the “Equilibrium solubility Water” value in data set [2] (water, 32 °C, 48 h) stood at 6928.52 ± 4.80 µg/mL.
In the case of `CC(=O)Oc1cccc2c1C(=O)c1c(OC(C)=O)cc(C(=O)O)cc1C2=O.NCCO` [DCN-eta], in data set [1], the “Q24h, the cumulative amount of drug permeated per unit area at 24 h” value is 3.04 ± 0.67 µg/cm^2; the Tlag was 1.41 ± 0.56 h; the “Jss, the steady-state flux” value was determined as 0.09 ± 0.04 µg/cm^2⋅h^–1. Also, in data set [2] (setting [4]), the solubility thermodynamic at 48 h is 6100 ± 24.7 µg/mL. Moreover, the solubility thermodynamic at 48 h in data set [2] (setting [5]) amounted to 121.6 ± 1.2 µg/mL. The solubility thermodynamic at 48 h in data set [2] (setting [6]) worked out at 3060 ± 35.8 µg/mL.
